What was measured:
[1] = test system: Human Umbilical Vein Endothelial Cells (HUVECs); assay: MTT cell toxicity assay; assay type: cell-based; conditions: HUVEC; for cells displaying toxicity: 24 hours
Procedure: (§1) Cell Culture: All experiments were performed with cultured Human Umbilical Vein Endothelial Cells (HUVECs—Gibco, Invitrogen) and grown to confluence at 37° C. in a 5% CO2 humidified incubator, on tissue culture flasks previously coated with 1% gelatin in supplemented culture medium (M199 with 10% heat inactivated fetal calf serum, 100 U/ml penicillin, 100 μg/ml streptomycin, 2 mM glutamine, 10 mM HEPES, pH 7.4, heparin 12 I.U./ml, 1% retinal derived growth factor, Sigma). Following trypsin treatment, the cells were detached from the flasks and final mono-layers were prepared by seeding HUVECs on gelatin-precoated culture plates and then incubated for 24-48 h to ensure confluence. Cells up to the fourth passage were used for all experiments. Recombinant human TNF-α was purchased from R&D Systems (Minneapolis, Minn.).
Cell Toxicity Assays: Cellular toxicity was assessed by MTT [3-(4,5-dimethylthiazol-2-yl)-2,5-diphenyltetrazolium bromide] assay, a commercially available assay for assessment of cellular viability. INV-75 was added to HUVECs for 24 hours, and toxicity assays were performed at the end of this period. The MTT assay relies on the cellular reduction of positively charged tetrazolium salts to their intensely colored formazan product by mitochondrial dehydrogenases. Formazan production is decreased in the presence of impaired mitochondrial redox function and enhanced free radical production and may, therefore, be used as an index of cell viability responses to experimental interventions.
In short, after removing microtiter plates from the incubator, fresh medium containing a fixed volume of reconstituted MTT [3-(4,5-dimethylthiazol-2-yl)-2,5-diphenyltetrazlium bromide; final concentration: 0.5 mg/ml] was added to the wells; the plates were kept at 37° C. in a 5% CO2 environment for 2 h, and then the MTT solubilization solution provided by the manufacturer was added. The formazan product formed by the conversion of positively charged tetrazolium salts to the reduced state has low aqueous solubility and is present as purple crystals. Dissolving the formazan with a solubilization buffer (provided in kit) permits the convenient quantification of its formation. Optical density at OD 570 nm is then measured for each well on an absorbance plate reader. The within- and between-assay variability was 3 and 5%, respectively. Various concentrations of INV-75 was tested in cell based assays using the MTT assay, as described above. The concentrations tested ranged from 1 mM to 10 nM and the cells were exposed for over 24 hours in duration (FIG. 2).

ICAM-1 = assay: ELISA of ICAM-1 release from TNF-α stimulated HUVEC; assay type: cell-based, human; conditions: HUVEC pretreated 24 hours, then 2 ng/mL TNF-α for 6 hours
Procedure: as §1
Enzyme-Linked Immunosorbent Assay (ELISA): To measure the expression of cell surface adhesion molecules, ELISA technique was utilized (R and D Systems, Minneapolis, Minn.). […]
Enzyme-Linked Immunosorbent Assay (ELISA) and results: To measure the expression of cell surface adhesion molecules, ELISA technique was utilized. […] The expression of VCAM-1 and ICAM-1 were evaluated after TNF-α stimulation for 6 hours.

Cardiovascular Patient = assay: Treatment of a patient with acute non-ST elevation myocardial infarction (Examples 11-12); assay type: in vivo, human; conditions: 1.0 to 100 mg/kg in the catheterization laboratory
Procedure: (§2) A person presents with uncomfortable pressure, squeezing and pain in the center of their chest as well as in shoulders, arms, neck, jaw and back for over 4 hours. They also complain of shortness of breath. […] They are given aspirin, clopidogrel, nitrates and IV heparin and taken to the catheterization laboratory. After being evaluated with an angiography, they are diagnosed as suffering from a […] blockage in the left anterior descending coronary artery. The patient is administered a composition comprising an effective amount of 3,4-Methylenedioxy 6-nitro phenyl lipoate (INV-7465) (1.0 to 100 mg/kg) in the catheterization laboratory. Patient reports improvement in the chest pain, shortness of breath. They are again evaluated with an angiography to measure reduced plaque in their arteries.
as §2, with “The patient is administered a composition comprising an effective amount of 3,4-Methylenedioxy 6-nitro phenyl lipoate (INV-7465) (1.0 to 100 mg/kg) in the catheterization laboratory. Patient reports improvement in the chest pain, shortness of breath.” left out

Humans = assay: Treatment of established atherosclerosis in humans (Example 21); assay type: in vivo, human; conditions: oral, in excess of 12 months
Source text: Individuals with established atherosclerosis with evidence of plaque in the coronary arteries, carotid arteries or peripheral arteries are known to be at risk for future cardiovascular events such as heart attacks and strokes. These individuals are on treatments such as statins and anti-hypertensive agents such as ACE inhibitors, diuretics or calcium channel blockers. They also will receive an acceptable dose of a composition comprising a compound of the present invention in an acceptable carrier orally and chronically for durations in excess of 12 months. In one study, 3,4-methylenedioxy phenyl acetate (INV 73); 3,4-methylenedioxy-6-nitrophenol (INV 74); 3,4-methylenedioxy-6-nitrophenyl acetate (INV 75); 3,4-Methylenedioxy 6-nitro phenyl lipoate (INV-7465) or 3,4-Methylenedioxy phenyl lipoate (INV-7065) are administered to these individuals. A repeat IVUS measurement is made at the end of the treatment period to assess the effect of the infusion of the composition on coronary atherosclerosis in the target vessel.

Row | Compound | cells displaying toxicity ([1]; 10 nM) [%] | cells displaying toxicity ([1]; 100 nM) [%] | cells displaying toxicity ([1]; 1 μM) [%] | cells displaying toxicity ([1]; 10 μM) [%] | cells displaying toxicity ([1]; 1 mM) [%] | release of ICAM-1 (ICAM-1) | chest pain, shortness of breath (Cardiovascular Patient) | plaque in the atherosclerotic coronary artery (IVUS) (Humans) | cell toxicity results compared with those of INV-75 ([1]; dose range of 10 nM to 100 μM)
1 | CC(=O)Oc1cc2c(cc1[N+](=O)[O-])OCO2 [INV-75, 3,4-methylenedioxy-6-nitrophenyl acetate] | 2 | 4 | 8 | 7 | 74 | marked reduction | improvement | reduced | 
2 | O=C(CCCCC1CCSS1)Oc1ccc2c(c1)OCO2 (stereo not shown) [INV-7065, 3,4-Methylenedioxy phenyl lipoate] |  |  |  |  |  |  |  | reduced | identical
3 | O=C(CCCCC1CCSS1)Oc1cc2c(cc1[N+](=O)[O-])OCO2 (stereo not shown) [INV-7465, 3,4-Methylenedioxy 6-nitro phenyl lipoate] |  |  |  |  |  | marked reduction | improvement | reduced | 
